# Legend:
# [1] = system: RPE-choroid complex; assay: IVT injection of naked pVAX2-Luc followed by gas injection and/or ET, luciferase in RPE-choroid complex (Example 1); assay type: in vivo, rat; conditions: IVT pre-injection 30 min before plasmid, Indocyanin Green 2.5 mg/ml, Polysorbate 80 0.2 mg/ml
# Protocol: (§1) FIG. 2: Illustrates the intracellular delivery of naked plasmids and gene expression in the neuroretina (FIG. 2A) and the RPE-choroid complex (FIG. 2B) of IVT pre-injection of 10 μl of the corticosteroid pharmaceutical specialty KENACORT® at 20 mg/ml (triamcinolone acetonide (TA) as active agent and polysorbate 80 as excipient), Indocyanine Green at 2.5 mg/ml or Polysorbate 80 at 0.2 mg/ml 30 min before IVT injection of the plasmid pVAX2-Luc (30 μg in 10 μl in NaCl 0.45%), followed by gas injection or ET application [8×(80V; 20 ms; 5 Hz)] or combination of both immediately upon IVT injection of the plasmid. Luminescence is expressed in counts/s (cps). The results are expressed as the mean±sem of 4 independent experiments.
# Rats receiving intravitreal injection of pVAX2-luc were sacrificed on day 7 after treatment. The eyes were enucleated and dissected under an operating microscope, the neuroretina and RPE/choroid complex removed, snap frozen in liquid nitrogen and kept at −80° C. until tested.
# Tissue samples were then homogenized in 0.3 ml (rat neuroretina and RPE/choroid complex) or 1.0 ml (mouse tibialis anterior muscle) of cell culture lysis reagent (Promega, Charbonniere, France) supplemented with protease inhibitor cocktail (Boehringer, Mannheim, Germany) (one tablet for 50 ml). After centrifugation 10 min at 15 000 g and 4° C., tissue lysate supernatant was collected.
# (§2) The luciferase activity was assessed on 10 μl of sample (tissue lysate supernatant or ocular fluid) placed in a white 96 wells plate.
# (§3) The detector was a Wallac Victor luminometer (EG&G Wallac, Evry, France) which adds 50 μl of luciferase assay substrate or Gaussia luciferase assay substrate (Promega) to the sample (tissue lysate supernatant or ocular fluid respectively) and integrates the light produced by the sample during 10 s. Results are given for the whole sample in counts per second (cps) or in cps/ml/mg of protein.
# The effect of various chemical agents on the RPE-choroid complex gases injection or electrotransfer-induced intracellular delivery of the naked plasmid pVAX2-Luc and gene expression of the luciferase in neuroretina was evaluated.
# Thirty μg of naked pVAX2-Luc in 10 μl in NaCl 0.45% was injected intravitreously in one eye of anaesthetized rats (the contra lateral eye was used as control) immediately followed by gas injection (C2F6 or SF6) or ET application [8×(80V; 20 ms; 5 Hz)] or combination of both. […]
# (§4) 7 days after the treatment the animals were sacrificed, the eyes were enucleated and dissected under an optical microscope to isolate the neuroretina and the RPE-choroid complex and the luminescence of the luciferase was measured.
# [2] = system: neuroretina; assay: IVT injection of naked pVAX2-Luc followed by gas injection and/or ET, luciferase in neuroretina (Example 1); assay type: in vivo, rat; conditions: IVT pre-injection 30 min before plasmid, Indocyanin Green 2.5 mg/ml, Polysorbate 80 0.2 mg/ml
# Protocol: as §1, with “experiments. […]” for “experiments.”
# The luciferase activity was assessed on 10 μl of sample (tissue lysate supernatant or ocular fluid) placed in a white 96 wells plate. […]
# The effect of various chemical agents on the RPE-choroid complex gases injection or electrotransfer-induced intracellular delivery of the naked plasmid pVAX2-Luc and gene expression of the luciferase in neuroretina was evaluated. […]
# as §4
# [3] = system: ciliary muscle; assay: Luciferase expression in aqueous humor after transfection of the ciliary muscle with naked pGLuc (Example 5); assay type: in vivo, rat; conditions: for Luciferase (cps) Mean ± sem, level of expression in aqueous humor: pre-treatment 20 mg/ml (10 μl) 45 min before 15 μg pGLuc, day 7, background 99.3 ± 1.5, water 103.5 ± 3.2
# Protocol: FIG. 6: Illustrates the intracellular delivery of naked plasmids to a smooth muscle, the ciliary muscle, and subsequent gene expression in ocular media. Intramuscular pre-injection of triamcinolone acetonide (TA) or anecortave acetate (AA) at 20 mg/ml (10 μl) was carried out 45 min before intramuscular injection of the naked plasmid pGLuc (15 μg in 10 μl in NaCl 0.45%). No transfection or water instead of corticosteroid was used as control. Luminescence is expressed in counts/s (cps). The results are expressed as the mean±sem of 4 to 6 independent experiments.
# To reach the ciliary muscle located below the sclera posterior to the limbus, the intra ciliary muscle injection was carried out through a tunneled corneal incision. When the needle had crossed the limbus, it was inserted slightly deeper for a distance of 1 mm and the solutions were injected.
# Rats receiving injection of pGLuc in the ciliary muscle were sacrificed on day 7 after treatment. Intraocular fluids were collected on enucleated eyes, clarified by centrifugation and the supernatants stored at −20° C. until tested.
# as §2, §3
# Fifteen μg of naked pGLuc in 10 μl in NaCl 0.45% was injected in the ciliary muscle of one eye of anaesthetized rats (the contra lateral eye was used as control).
# The plasmid injection was preceded 45 min before by intramuscular injection of 10 μl of triamcinolone acetonide (TA, 20 mg/ml) or anecortave acetate (AA, 20 mg/ml), a synthetic corticosteroid.
# No injection and pre-injection with water were performed as controls.
# [4] = system: tibialis anterior muscle; assay: Luciferase expression in tibialis anterior muscle after injection of naked pVAX2-Luc (Example 6); assay type: in vivo, mouse; conditions: water control 6.749
# Protocol: Luminescence is expressed in counts/s/ml/mg of protein (cps/ml/mg). The results are expressed as the mean±sem of 3 independent experiments. […] Intramuscular injection in the mouse tibialis anterior muscle was carried out with a 30 G needle on a 300 μl microfine syringe (BD Biosiences). Mouse receiving injection of pVAX2-luc in the tibialis anterior muscle were sacrificed on day 7 after treatment. The tibialis anterior muscle was removed, snap frozen in liquid nitrogen and kept at −80° C. until tested. Tissue samples were then homogenized in 0.3 ml (rat neuroretina and RPE/choroid complex) or 1.0 ml (mouse tibialis anterior muscle) of cell culture lysis reagent (Promega, Charbonniere, France) supplemented with protease inhibitor cocktail (Boehringer, Mannheim, Germany) (one tablet for 50 ml). After centrifugation 10 min at 15 000 g and 4° C., tissue lysate supernatant was collected. The luciferase activity was assessed on 10 μl of sample (tissue lysate supernatant or ocular fluid) placed in a white 96 wells plate. The detector was a Wallac Victor luminometer (EG&G Wallac, Evry, France) which adds 50 μl of luciferase assay substrate or Gaussia luciferase assay substrate (Promega) to the sample (tissue lysate supernatant or ocular fluid respectively) and integrates the light produced by the sample during 10 s. Results are given for the whole sample in counts per second (cps) or in cps/ml/mg of protein. One hundred μg of pVAX1-LacZ or thirty μg of naked pVAX2-Luc in 100 or 30 μl in NaCl 0.45% were, respectively, injected into the tibialis anterior muscle of rats or into the tibialis anterior muscle of mice. In the mice, the plasmid injection was preceded 30 min before by intramuscular injection of 30 μl of triamcinolone acetonide (TA) or dexamethasone (DEX) at 2 or 20 mg/ml, or soluble DEX at 4 mg/ml. Pre-injection with water was performed as control.
# [5] = pre-treatment 2 mg/ml (30 μl) 30 min before plasmid
# [6] = pre-treatment 20 mg/ml (30 μl) 30 min before plasmid
Molecule,"improvement of the efficacy of gases injection, by contrast with KENACORT [1]",improvement of the efficiency of ET [1],"efficiency in improving transfection, by contrast with KENACORT [2]","Luciferase (cps) Mean ± sem, level of expression in aqueous humor [3]","Luciferase (cps) means (10^6) [4, 5]","Luciferase (cps) means (10^6) [4, 6]",level of expression of Luciferase in the aqueous humor compared to naked plasmid alone ([3]; pre-injection 20 mg/ml (10 μl) 45 min before 15 μg pGLuc)
polysorbate 80,less efficient,"improved, in a certain extent",less efficient,,,,
"CC1(C)C(/C=C/C=C/C=C/C=C2\N(CCCCS(=O)(=O)O)c3ccc4ccccc4c3C2(C)C)=[N+](CCCCS(=O)(=O)[O-])c2ccc3ccccc3c21 [Indocyanin Green, indocyanine green]",less efficient,"improved, in a certain extent",less efficient,,,,
"CC1(C)O[C@@H]2C[C@H]3[C@@H]4CCC5=CC(=O)C=C[C@]5(C)[C@@]4(F)[C@@H](O)C[C@]3(C)[C@]2(C(=O)CO)O1 [TA, triamcinolone acetonide]",,,,122.3 ± 6.8 cps,6.849 10^6 cps,6.431 10^6 cps,
"CC(=O)OCC(=O)[C@@]1(O)CC[C@H]2[C@@H]3CCC4=CC(=O)CC[C@]4(C)C3=CC[C@@]21C [AA, anecortave acetate]",,,,122.5 ± 7.2 cps,,,dramatically improve
"C[C@@H]1C[C@H]2[C@@H]3CCC4=CC(=O)C=C[C@]4(C)[C@@]3(F)[C@@H](O)C[C@]2(C)[C@@]1(O)C(=O)CO [DEX, dexamethasone]",,,,,8.526 10^6 cps,30.13 10^6 cps,

# — US9315829B2, “Methods for intracellular delivery of nucleic acids” (UNIVERSITE PARIS DESCARTES, priority 2010, dated 2016)
